# In a melting point compilation (Tetko et al.; mined from patent text by program, amines drawn as free bases though some values may be those of a salt):
row,SMILES,melting point
1,CSc1ccc(-c2oncc2C(=O)C2CC2)nc1,103 to 104 °C
2,Cc1ccc2c(c1)SC(c1ccc(OCCCCBr)cc1)C(=O)N2C (stereo unspecified),75 to 76 °C
3,CCCCCCCNC(=O)N(C)c1cccc(-c2ccc(CC(Nc3ccccc3C(=O)c3ccccc3)C(=O)O)cc2)c1 (stereo unspecified),105 °C
4,Cc1nc2ccccc2nc1OCc1nc(Cl)cc(N2CCCC2)n1,136 to 140 °C
5,O=C(NO)C(=O)c1ccc(OCCOc2ccc3ccccc3c2)s1,165 to 167 °C
6,O=S1(=O)N=CN(C2CC2)c2cc(Br)ccc21,268 to 271 °C
7,CN1CCN(S(=O)(=O)c2cc(NC(=O)c3cnn4c(C(F)(F)F)cc(-c5ccc(C(F)(F)F)cc5)nc34)c(Cl)s2)CC1,301 °C
8,O=c1[nH]c(=O)n(Cc2ccc(Oc3ccc(Cn4oc(=O)[nH]c4=O)cc3)cc2)o1,175 to 178 °C
9,CCn1cc(C(=O)O)c(=O)c2cnc(N3CCN(C(C)=O)CC3)nc21,298 to 300 °C
10,COc1nc(C(F)(F)F)cc(=O)n1-c1cc(OC(C)C)c(Cl)cc1F,117 to 119 °C
11,CC1CC(N)=NN1c1ccc(Cl)cc1Cl (stereo unspecified),109 to 111 °C
12,O=C(CCC1CCNCC1)c1cc2c3c(c1)CCN3C(=O)CC2,114 to 115 °C
13,COc1ccc2c(c1)C1=C(SCC3(CCN(CC(O)COc4ccc(C(C)(C)C)cc4)CC3)O1)C(=O)C2=O (stereo unspecified),153 to 156 °C
14,O=c1[nH]nc(-c2ccc(Cl)cc2)n1Cc1ccccc1,208 to 210 °C
15,O=C(NC1CCC(OCc2ccccc2)CC1)NC12CC3CC(CC(C3)C1)C2 (stereo unspecified),181 °C
16,O=C1C[C@H](NC(=O)C(F)(F)F)C(=O)O1,116 to 118 °C
17,COc1cc(COc2ccc(N)nn2)c(Br)c(OC)c1OC,160 to 161 °C
18,COc1cc(C)c2c(c1)CCN2c1nc(Cl)cn(CCSC)c1=O,111 to 113 °C
19,O=[N+]([O-])c1cnc2c(F)c(Cl)c(F)cc2c1,174 °C
20,CCCc1nn(C)c2c(=O)n(CCOc3ccc(OC(C)(C)C(=O)O)cc3)c(CC)nc12,108 to 110 °C
21,OCC1CCN(c2nc3ccccc3s2)CC1,76 to 80 °C
22,Cn1nc(-c2nc(-n3cccc3)c(N)nc2-c2ccccc2)ccc1=O,202 to 205 °C
23,CCc1nc2c(c(C)c(C)n3nnnc23)n1CCOCCN1CCCC1=O,141 to 143 °C
24,Cc1ccc(C2=CCC(O)CC2)cc1 (stereo unspecified),96.5 to 97.5 °C
25,CN(CCCNC(=S)c1cc(C(C)(C)C)c(O)c(C(C)(C)C)c1)CCOc1ccc2c(c1)OCO2,114 to 115 °C
26,C=CC(=O)OC1(C)CCCC2C3C=CC(C3)C21 (stereo unspecified),41 to 42 °C

row,SMILES,melting point
1,CS(=O)(=O)c1ccc(CC(N)C(O)C(=O)C2(C(=O)NC(CCCNC(=N)N)C(=O)O)CCCC2N)cc1 (stereo unspecified),142 to 145 °C
2,Cc1cc(F)ccc1-c1cc(N2CCS(=O)(=O)CC2)ncc1N(C)C(=O)C(C)(C)c1cc(C(F)(F)F)cc(C(F)(F)F)c1,135 to 138 °C
3,CCOC(=O)c1cc2cccc(NC(=O)c3cc(OCc4ccccc4F)cc(OCc4ccccc4F)c3)c2[nH]1,157 to 158 °C
4,CCOC(=O)N[C@@H]1CCc2c(ccc(OCc3ccccc3)c2N(C)Cc2ccccc2)[C@H]1O (relative stereo),119 to 120 °C
5,COCCOc1nc(C)nc(N2CCC(c3ccc(F)cc3)CC2)c1[N+](=O)[O-],45 to 48 °C
6,C=C(C)CC(OS(C)(=O)=O)C(Cl)(Cl)Cl (stereo unspecified),60 to 61 °C
7,CC1COc2c(F)c(F)cc3c2N1C(=O)C3=O (stereo unspecified),169 to 171 °C
8,O=C(O)Cc1cc(S)n2ncnc2n1,283 to 286 °C
9,Cc1ccc2c(c1)C(O)CC21CCN(CCCC(=O)c2ccc(F)cc2)C1 (stereo unspecified),137 to 139 °C
10,CS(=O)(=O)Oc1ccc(S)cc1,66 to 68 °C
11,CC1OC(n2cc(F)c(NC(=O)c3ccc(Cl)cc3)nc2=O)C(O)C1O (stereo unspecified),142 to 146 °C
12,CC(NC(=O)Cc1cc(F)cc(F)c1)C(=O)NC1C(=O)N(CCc2ccccc2)Cc2ccccc21 (stereo unspecified),75 to 76 °C
13,O=C1NN(c2ccccc2)CC1CN1CCOCC1 (stereo unspecified),143 to 144 °C
14,CCOC(=O)C1(C(=O)Nc2ccc(F)cc2F)CC1,79 to 80.5 °C
15,Cc1ccc(C(=O)c2cc3cc(OCc4ccccc4)ccc3[nH]2)cc1,199 to 200 °C
16,COc1cc(Nc2nccc(-c3ccc(Br)cc3)n2)cc(OC)c1OC,179 °C
17,O=C(c1ccc[nH]1)c1cccn1N1C(=O)c2ccccc2C1=O,204 to 206 °C
18,COc1cc(COc2nn(-c3ccccc3)cc2CO)ccc1OCc1nc(-c2ccco2)oc1C,127 to 128 °C
19,CC1(C)Oc2ccc(C(N)=O)cc2[C@H](NCCc2ccccc2)[C@H]1O (relative stereo),162 °C
20,CCC(=O)Oc1cc(C(=O)c2c(Cl)cccc2Cl)c(C)cc1OC,142 to 145 °C
21,COc1cc(OC)nc(NC(=O)NS(=O)(=O)Nc2ccccc2C(O)C2CC2)n1 (stereo unspecified),66 to 69 °C
22,COc1ccc(CCN(C)CCOc2ccc(NC(=O)c3cccc4c3Nc3ccccc3S4)cc2)cc1OC,90 °C
23,OC[C@@H]1CCCN1c1nc2ccccc2s1,110 °C
24,COC(=O)c1cc(Cl)c(C(=O)OC)cc1Cl,134 to 135 °C
25,Cn1nnc(-c2cccc(Oc3cccc(C(F)(F)F)c3)n2)n1,58 to 61 °C
